ChEMBL document CHEMBL5441451, “ASAP - In vitro cytotoxicity” (2024)

Legend:
[1] = (§1) Functional metabolic assay to measure dose dependent changes in cell viability from drug treatment in HeLa-ACE2 cells. Hela-ACE2 cells are seeded prior to drug treatment, then incubated in MTT (3-[4,5-dimethylthiazol-2-yl]-2,5- diphenyltetrazolium bromide) labelling reagent and SDS. Absorbance is measured at 560 and 750 nm and analyzed by Gen5 software. The assay has been performed by Icahn School of Medicine at Mount Sinai.; type: toxicity, cell-based; settings: human; for CC50: HeLa-ACE2 cells; for CC10: hela-ace2
[2] = as §1, with “iPSC-Pneumocyte” for “HeLa-ACE2”, “The” for “Hela-ACE2”, “seeded” for “seeded prior to drug treatment,”, “labeling” for “labelling”; type: toxicity, cell-based; settings: human; for CC50: iPSC-Pneumocyte cells; for CC10: pneumocyte
[3] = Functional metabolic assay to measure dose dependent changes in cell viability from drug treatment in Vero E6/TMPRSS2 cells (cotreated with P-gp inhibitor, Elacridar). Cells are treated with antiviral candidates that have been serially diluted. Cytotoxicity is reported via measuring absorbance and analysis of MTT/MTS assays in uninfected cells. The assay has been performed by Icahn School of Medicine at Mount Sinai.; type: toxicity, cell-based, VeroE6/TMPRSS2; settings: chlorocebus sabaeus
[4] = test system: Middle East respiratory syndrome-related coronavirus; assay: microbe, parasite or virus in culture; type: functional, Chlorocebus sabaeus; settings: Vero 76

Compound | CC50 [1] [µM] | CC10 [1] [µM] | CC50 [2] [µM] | CC10 [2] [µM] | CC50 ([3]; Vero E6/TMPRSS2 cells, with Elacridar (P-gp inhibitor), concentration not stated) [µM] | CC10 ([3]; veroe6/tmprss2) [µM] | CC50 [4] [µM]
CC(C)[C@@H](Nc1ncnc2[nH]c(C(=O)N[C@@H]3CCN(C)C3)cc12)c1ccc2c(c1)S(=O)(=O)CCC2 | > 20 | > 20 | < 0.206 | < 0.206 | > 5 | > 5 | 
CNC(=O)c1c[nH]c2ncnc(N[C@H](c3ccc4c(c3)S(=O)(=O)CCC4)C(C)C)c12 | > 20 | > 20 | > 50 | > 50 |  |  | > 32
